Measured values: patent publication US7064120B2, “Tricyclic pyridyl carboxamides and derivatives thereof tocolytic oxytocin receptor antagonists” (Wyeth, priority 2001, dated 2006)

Target: T1, human vasopressin V1a receptor subtype (Homo sapiens, UniProt P37288)
T1 construct: host or cells: CHO cells, stably transfected (pZeoSV vector for the Thibonnier line)
Experiment: Vasopressin binding in CHO cell membranes expressing human vasopressin V1a subtype receptors ([3H]Manning ligand radioligand binding)
Settings: 100 nM
Description: Vasopressin Binding in Chinese Hamster Ovary Cell Membranes Expressing Human Vasopressin V1a Subtype Receptors
The trypsin is removed by aspiration and the cells dislodged by tapping. Cell Culture medium (e.g. 30 mL for 1:30 split) is immediately added and mixed well to inactivate trypsin. 1 mL of detached cells is added to new culture flasks containing fresh cell culture medium (e.g., into 25 mL per T-150 flask), and mixed gently. The cells are incubated at 37° C. in 5% CO2. The medium is changed at 3 to 4 days interval (or as appropriate). […] All steps are done under sterile conditions.
The cells are washed twice gently with Hank's Balanced Salt solution (e.g,. use 10 mL per T-150 flask). […] The contents are transferred to centrifuge tubes (50 mL) kept in an ice bath. All subsequent steps are done at 4° C. The tubes are centrifuged at 300×g for 15 min (1380 rpm on SORVAL, Model RT6000D, using the rotor for 50 mL tubes). The supernatant is discarded and the cells suspended in homogenizing buffer(10 mM Tris-HCl containing 0.25 M sucrose and 1 mM EDTA, pH 7.4) ensuring that the volume of the buffer is about ten times the volume of the cell pellet. The cells are pooled into a centrifuge tube (50 mL) and homogenized with Polytron at setting 6 for 10 sec. The homogenate is transferred into a Potter-Elvjehm homogenizer and homogenized with 3 strokes. The homogenate is centrifuged at 1500×g for 10 min at 4° C. (3100 rpm using SORVAL, model RT6000D, using the rotor for 50 mL tubes). The pellet is discarded. The supernatant is centrifuged at 100,000×g for 60 min. at 4° C. (Beckman L8-80M ultracentrifuge; spin at 37,500 rpm with rotor type 70 Ti for 50 mL tubes; 38,000 rpm with type 80Ti for 15 mL tubes; or 35,800 rpm with rotor type 45Ti). The supernantant is discarded and the pellet suspended in 3 to 4 mL of Tris buffer (50 mM TRIS-HCl, pH 7.4). The protein content is estimated by the Bradford or Lowry method. The volume of the membrane suspension is adjusted with the membrane buffer (50 mM Tris-HCl containing 0.1% BSA and 0.1 mM PMSF) to give 3.0 mg/mL (or as appropriate) of protein. The membranes are aliquoted and stored at −70° C.
In wells of a 96-well format microtiter plate, is added 90, 110 or 130 μL (to make up a final volume of 200 μL) of assay buffer containing 50 mM of Tris-HCl (pH 7.4), BSA (heat inactivated, protease-free), […], 1 mg % aprotinin, 1 mg % leupeptin, 2 mg % 1,10-phenanthroline, 10 mg % trypsin inhibitor, and 0.1 mM PMSF. The inhibitors are added on the day of the experiment. The components are mixed at room temperature, and then kept in ice bath following adjustment of the pH to 7.4. […] 20 μL of 50% DMSO is added for Manning and other peptide ligands and the assay buffer volume is adjusted accordingly. To each well is added 50 μL of frozen membrane suspension thawed immediately prior to use and diluted in the assay buffer to the required concentration (equivalent to 25 to 50 μg of protein/well as needed). 20 μL of 8 nM [^3H]Manning ligand in the assay buffer, prepared just before use, is added, and incubated at room temperature for 60 min. shaking the plate on a mechanical shaker for the first 15 min. The incubation is stopped by rapid filtration of the plate contents followed by wash with ice-cold buffer (50 mM Tris-HCl, pH 7.4) using a cell harvester (Tomtek and Printed filtermat-B filter paper). The filter paper is thoroughly dried (7–12 min. in a microwave oven) and impregnated with MeltiLex B/H melt-on scintillation wax sheets and the radioactivity counted in a betaplate scintillation counter.
Binding data is either reported as percent inhibition at a certain concentration or if an IC50 was calculated, as a nanomolar concentration.

T1 sequence (P37288 whole entry): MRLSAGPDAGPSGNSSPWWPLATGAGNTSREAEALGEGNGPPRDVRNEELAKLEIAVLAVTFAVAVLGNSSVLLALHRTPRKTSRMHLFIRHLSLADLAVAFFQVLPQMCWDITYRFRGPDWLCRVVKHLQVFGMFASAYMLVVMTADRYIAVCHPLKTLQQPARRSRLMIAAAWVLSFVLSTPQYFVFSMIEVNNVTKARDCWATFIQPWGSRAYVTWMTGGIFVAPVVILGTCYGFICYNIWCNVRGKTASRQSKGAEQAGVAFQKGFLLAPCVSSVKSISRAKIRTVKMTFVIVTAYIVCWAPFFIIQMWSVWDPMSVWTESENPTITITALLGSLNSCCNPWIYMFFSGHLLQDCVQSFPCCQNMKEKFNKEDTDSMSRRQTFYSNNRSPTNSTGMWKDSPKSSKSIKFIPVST

Structure (SMILES)	inhibition at 0.1 µM [%]	V1a % inhibition @ 100 nM [%]
COc1ccccc1-c1ccc(C(=O)N2Cc3ccc(C(=O)NCc4ccccn4)n3Cc3ccccc32)cc1OC [Example 32, 10-[(2,2′-Dimethoxy-[1,1′-biphenyl]-4-yl)carbonyl]-N-(2-pyridinylmethyl)-10,11-dihydro-5H-pyrrolo[2,1-c][1,4]benzodiazepine-3-carboxamide]	13	
COc1cccc(-c2ccc(C(=O)N3Cc4ccc(C(=O)NCCc5ccccn5)n4Cc4ccccc43)cc2C)c1 [Example 51, 10-[(3′-Methoxy-2-methyl-[1,1′-biphenyl]-4-yl)carbonyl]-N-[2-(2-pyridinyl)ethyl]-10,11-dihydro-5H-pyrrolo[2,1-c][1,4]benzodiazepine-3-carboxamide]	2	
COc1cccc(-c2cc(OC)c(C(=O)N3Cc4ccc(C(=O)N(C)Cc5cccnc5)n4Cc4ccccc43)cc2Cl)c1 [Example 108, 10-[(6-Chloro-3,3′-dimethoxy-[1,1′-biphenyl]-4-yl)carbonyl]-N-methyl-N-(3-pyridinylmethyl)-10,11-dihydro-5H-pyrrolo[2,1-c][1,4]benzodiazepine-3-carboxamide]	4	
Cc1ccccc1-c1ccc(C(=O)N2Cc3ccc(C(=O)N(C)CCc4ccncc4)n3Cc3ccccc32)cc1C [Example 127, 10-[(2,2′-Dimethyl-[1,1′-biphenyl]-4-yl)carbonyl]-N-methyl-N-[2-(4-pyridinyl)ethyl]-10,11-dihydro-5H-pyrrolo[2,1-c][1,4]benzodiazepine-3-carboxamide]	66	
COc1cc(C(=O)N2Cc3ccc(C(=O)NCc4ccccn4)n3Cc3ccccc32)ccc1-c1ccccc1C [Example 28, 10-[(2-Methoxy-2′-methyl-[1,1′-biphenyl]-4-yl)carbonyl]-N-(2-pyridinylmethyl)-10,11-dihydro-5H-pyrrolo[2,1-c][1,4]benzodiazepine-3-carboxamide]	28	
Cc1ccccc1-c1ccc(C(=O)N2Cc3ccc(C(=O)NCCc4ccccn4)n3Cc3ccccc32)cc1C [Example 50, 10-[(2,2′-Dimethyl-[1,1′-biphenyl]-4-yl)carbonyl]-N-[2-(2-pyridinyl)ethyl]-10,11-dihydro-5H-pyrrolo[2,1-c][1,4]benzodiazepine-3-carboxamide]	26	
COc1cc(C(=O)N2Cc3ccc(C(=O)N4CCN(c5ccncc5)CC4)n3Cc3ccccc32)ccc1-c1ccccc1C [Example 118]		62
COc1cccc(-c2ccc(C(=O)N3Cc4ccc(C(=O)NCc5ccncc5)n4Cc4ccccc43)cc2OC)c1 [Example 98]		24
COc1ccccc1-c1ccc(C(=O)N2Cc3ccc(C(=O)NCCc4ccccn4)n3Cc3ccccc32)cc1 [Example 52, 10-[(2′-Methoxy-[1,1′-biphenyl]-4-yl)carbonyl]-N-[2-(2-pyridinyl)ethyl]-10,11-dihydro-5H-pyrrolo[2,1-c][1,4]benzodiazepine-3-carboxamide]	16	
COc1cc(C(=O)N2Cc3ccc(C(=O)N4CCN(c5ccccn5)CC4)n3Cc3ccccc32)ccc1-n1c(C)ccc1C [Example 145, {10-[4-(2,5-Dimethyl-1H-pyrrol-1-yl)-3-methoxybenzoyl]-10,11-dihydro-5H-pyrrolo[2,1-c][1,4]benzodiazepin-3-yl}[4-(pyridin-2-yl)-1-piperazinyl]methanone]	-1	
COc1cccc(-c2ccc(C(=O)N3Cc4ccc(C(=O)NCc5ccccn5)n4Cc4ccccc43)cc2OC)c1 [Example 33, 10-[(2,3′-Dimethoxy-[1,1′-biphenyl]-4-yl)carbonyl]-N-(2-pyridinylmethyl)-10,11-dihydro-5H-pyrrolo[2,1-c][1,4]benzodiazepine-3-carboxamide]	23	
COc1ccccc1-c1ccc(C(=O)N2Cc3ccc(C(=O)N4CCN(c5ccncc5)CC4)n3Cc3ccccc32)cc1OC [Example 122, {10-[(2,2′-Dimethoxy-[1,1′-biphenyl]-4-yl)carbonyl]-10,11-dihydro-5H-pyrrolo[2,1-c][1,4]benzodiazepin-3-yl}[4-(4-pyridinyl)-1-piperazinyl]methanone]	9	
COc1cccc(-c2cc(OC)c(C(=O)N3Cc4ccc(C(=O)N5CCN(c6ccncc6)CC5)n4Cc4ccccc43)cc2Cl)c1 [Example 120, {10-[(6-Chloro-3,3′-dimethoxy-[1,1′-biphenyl]-4-yl)carbonyl]-10,11-dihydro-5H-pyrrolo[2,1-c][1,4]benzodiazepin-3-yl}[4-(4-pyridinyl)-1-piperazinyl]methanone]	6	
Cc1ccccc1-c1ccc(C(=O)N2Cc3ccc(C(=O)N(C)CCc4ccncc4)n3Cc3ccccc32)cc1 [Example 130, N-Methyl-10-[(2′-methyl-[1,1′-biphenyl]-4-yl)carbonyl]-N-[2-(4-pyridinyl)ethyl]-10,11-dihydro-5H-pyrrolo[2,1-c][1,4]benzodiazepine-3-carboxamide]	5	

Further lines, with some results ahead:

inhibition at 0.1 µM [%]	Structure (SMILES)	V1a % inhibition @ 100 nM [%]
20	Cc1ccccc1-c1ccc(C(=O)N2Cc3ccc(C(=O)NCc4ccccn4)n3Cc3ccccc32)cc1 [Example 27, 10-[(2′-Methyl-[1,1′-biphenyl]-4-yl)carbonyl]-N-(2-pyridinylmethyl)-10,11-dihydro-5H-pyrrolo[2,1-c][1,4]benzodiazepine-3-carboxamide]	
12	Cc1ccccc1-c1ccc(C(=O)N2Cc3ccc(C(=O)NCc4cccnc4)n3Cc3ccccc32)cc1C [Example 37, 10-[(2,2′-Dimethyl-[1,1′-biphenyl]-4-yl)carbonyl]-N-(3-pyridinylmethyl)-10,11-dihydro-5H-pyrrolo[2,1-c][1,4]benzodiazepine-3-carboxamide]	
7	CN(CCc1ccncc1)C(=O)c1ccc2n1Cc1ccccc1N(C(=O)c1ccc(-c3cccc4ccccc34)cc1Cl)C2 [Example 136, 10-[2-Chloro-4-(naphthalen-1-yl)benzoyl]-N-methyl-N-[2-(4-pyridinyl)ethyl]-10,11-dihydro-5H-pyrrolo[2,1-c][1,4]benzodiazepine-3-carboxamide]	
4	CN(Cc1cccnc1)C(=O)c1ccc2n1Cc1ccccc1N(C(=O)c1ccc(-c3cccc4ccccc34)cc1Cl)C2 [Example 111, 10-[2-Chloro-4-(naphthalen-1-yl)benzoyl]-N-methyl-N-(3-pyridinylmethyl)-10,11-dihydro-5H-pyrrolo[2,1-c][1,4]benzodiazepine-3-carboxamide]	
-1	O=C(NCc1cccnc1)c1ccc2n1Cc1ccccc1N(C(=O)c1ccc(-c3cccc4ccccc34)cc1Cl)C2 [Example 47, 10-[2-Chloro-4-(naphthalen-1-yl)benzoyl]-N-(3-pyridinylmethyl)-10,11-dihydro-5H-pyrrolo[2,1-c][1,4]benzodiazepine-3-carboxamide]	
0	Cc1cc(C(=O)N2Cc3ccc(C(=O)NCc4cccnc4)n3Cc3ccccc32)ccc1-c1ccccc1C(F)(F)F [Example 48, 10-{[2-Methyl-2′-trifluoromethyl-[1,1′-biphenyl]-4-yl]carbonyl}-N-(3-pyridinylmethyl)-10,11-dihydro-5H-pyrrolo[2,1-c][1,4]benzodiazepine-3-carboxamide]	
30	COc1cc(C(=O)N2Cc3ccc(C(=O)N(C)CCc4ccncc4)n3Cc3ccccc32)ccc1-c1cccc2ccccc12 [Example 134, 10-[3-Methoxy-4-(naphthalen-1-yl)benzoyl]-N-methyl-N-[2-(4-pyridinyl)ethyl]-10,11-dihydro-5H-pyrrolo[2,1-c][1,4]benzodiazepine-3-carboxamide]	
